Test results: patent US7851623B2, “Chemical process” (AstraZeneca AB, priority 2006, dated 2010)

Experiments:
HUVEC [1] = assay: HUVEC assay, VEGF-stimulated endothelial cell proliferation; format: cell-based; details: Homo sapiens, read-out: IC50 for inhibition of VEGF-stimulated endothelial cell proliferation
Calu-6 tumour xenograft = assay: in vivo solid tumour model (WO 00/47212), Calu-6 tumour xenograft growth; details: once-daily oral, 28 days
HUVEC [2] = assay: HUVEC assay, basal endothelial cell proliferation; format: cell-based; details: Homo sapiens, basal (unstimulated) proliferation, read-out: IC50 for inhibition of basal endothelial cell proliferation
tumour models = details: once-daily oral administration; cited from earlier work

Structure (SMILES): COc1cc2c(Oc3ccc4[nH]c(C)cc4c3F)ncnc2cc1OCCCN1CCCC1 [AZD2171, 4-[(4-fluoro-2-methyl-1H-indol-5-yl)oxy]-6-methoxy-7-[3-(pyrrolidin-1-yl)propoxy]quinazoline]
- IC50 (HUVEC [1]): 400 ± 200 pM
- inhibition of growth of Calu-6 tumour xenograft (Calu-6 tumour xenograft; 1.5 mg/kg/day, P<0.01 one-tailed t test): 49%
- inhibition of growth of Calu-6 tumour xenograft (Calu-6 tumour xenograft; 3 mg/kg/day, P<0.0001 one-tailed t test): 69%
- inhibition of growth of Calu-6 tumour xenograft (Calu-6 tumour xenograft; 6 mg/kg/day, P<0.0001 one-tailed t test): 91%
- IC50 (HUVEC [2]): > 500000 pM
- anti-tumour activity in a range of models (tumour models): broad-spectrum anti-tumour activity
